Data as given in EP0361977A2, “Peptides having T cell suppressor activity” (IMM[…] INSTITUTE, INC., priority 1988, dated 1990).
Where a SMILES comes first, the peptide text is derived from it. The star is where a group is joined. βNA = c1ccc2cc(N*)ccc2c1; NHcHex = C1CCC(N*)CC1; NHPh = c1ccc(N*)cc1; X1 = c1ccc(NN*)cc1; NHiPr = CC(C)N*; For = O=C*

How the values were obtained:
CEM cells = assay: Cyclic GMP assay in CEM cells; assay type: cell-based, human; settings: for T cell suppressor activity: thymopentin-like activity, cyclic GMP assays on CEM cells; for induction of intracellular cyclic GMP (active / inactive peptides): CEM cells, dose-response curves from 1 to 1000 micrograms/ml, Fig. 1, composite of 6 experiments, compared with thymopentin
Description: This assay measures the ability of a peptide of this invention to bind to the cell membrane receptor of the intact CEM cell and selectively stimulate production of cyclic GMP, as does human thymopentin.
The CEM cell line was obtained from the American Type Culture Collection of Rockville, Md. CEM cells were freshly seeded and grown for 3 days with harvesting as described in T. Audhya et al, Arch. Biochem Biophys., 234: 167-177 (1984). The cells were washed 3 times in PBS and resuspended in RPMI 1640 at a concentration of 1.0 x 10⁷ cells/ml and were allowed to equilibrate at 37°C for 30 minutes before the addition of the test peptides (25 ul) and control peptides. The incubation was allowed to proceed in a shaking water bath for 4-5 minutes and was then terminated by addition of 1 ml ice-cold TCA (10 percent).
The cells in TCA were homogenized and sonicated to release cyclic nucleotide. The suspension was centrifuged at 3000 x g for 20 minutes at 4°C. The resulting precipitate was dissolved in 0.1 N NaOH to determine the protein content. TCA was removed from the supernatant fraction by extracting 4 times with 5 ml of water-saturated ET₂O. After the final extraction, the remaining traces of ether were removed by heating for 10 minutes in a 50°C water bath. After lyophilization the sample was reconstituted in 50 mM acetate buffer (pH 6.2) for radioimmunoassay of cyclic GMP.
For example, dose-response curves from 1 to 1000 micrograms/ml of peptide, were evaluated for each compound. […] A threshold activity was determined for each peptide tested. This is defined as the lowest concentration of the test peptide which induced an intracellular level of cyclic GMP greater than two standard deviations above the control. The controls had intracellular cyclic GMP values of less than 0.9 picomoles/ml (mean±standard deviation). Test results were considered positive if the level of cyclic GMP was greater than 2 times that determined for the parallel negative control. Active peptides had activity thresholds ranging from […].

MOLT-4 cells = assay: T cell helper activity, MOLT-4 T cell line (intracellular cGMP); assay type: cell-based, human; settings: thymopentin-like; assay not described for these peptides
helper T cell activity = settings: mice; cited from earlier work

| Compound | T cell suppressor activity (CEM cells) | induction of intracellular cyclic GMP (active / inactive peptides) (CEM cells) | T cell helper activity (MOLT-4 cells) | helper T cell activity in vivo (helper T cell activity) |
| --- | --- | --- | --- | --- |
| CCNC(=O)[C@@H](NC(=O)[C@H](CCC(=O)O)NC(=O)[C@@H]1CCCN1C(=O)[C@H](CCCNC(=N)N)NC(C)=O)C(C)C [Acetyl-Arg-Pro-Glu-Val-Ethylamide, reference compound] (Ac-RPEV-NHEt) | do not display T cell suppressor stimulatory activity of thymopentin | – | – | – |
| CC(C)[C@H](NC(=O)[C@H](CC(=O)O)NC(=O)[C@H](CCCCN)NC(=O)[C@@H](N)CCCNC(=N)N)C(=O)Nc1ccc2ccccc2c1 [Arg-Lys-Asp-Val-2-Naphthylamide, reference compound] (H-RKDV-βNA) | do not display T cell suppressor stimulatory activity of thymopentin | inactive | – | – |
| CC(C)[C@H](NC(=O)[C@H](CC(=O)O)NC(=O)[C@H](CCCCN)NC(=O)[C@@H](N)CCCNC(=N)N)C(=O)Nc1ccccc1 [Arg-Lys-Asp-Val-Anilineamide] (H-RKDV-NHPh) | – | active | – | – |
| CC(C)[C@H](NC(=O)[C@H](CC(=O)O)NC(=O)[C@H](CCCCN)NC(=O)[C@@H](N)CCCNC(=N)N)C(=O)NC1CCCCC1 [Arg-Lys-Asp-Val-Cyclohexylamide] (H-RKDV-NHcHex) | – | active | – | – |
| CC(C)NC(=O)[C@@H](NC(=O)[C@H](CC(=O)O)NC(=O)[C@H](CCCCN)NC(=O)[C@@H](N)CCCNC(=N)N)C(C)C [Arg-Lys-Asp-Val-Isopropylamide, Arg-Lys-Asp-Val-2-propylamide] (H-RKDV-NHiPr) | display both T cell suppressor and helper activities like thymopentin | – | display both T cell suppressor and helper activities like thymopentin | – |
| CC(C)[C@H](NC(=O)[C@H](CC(=O)O)NC(=O)[C@H](CCCCN)NC(=O)[C@@H](N)CCCNC(=N)N)C(=O)NNc1ccccc1 [Arg-Lys-Asp-Val-Phenylhydrazide, Arg-Lys-Asp-Val-2-Phenylhydrazide] (H-RKDV-X1) | – | active | – | – |
| CC(C)NC(=O)[C@@H](NC(=O)[C@H](CC(=O)O)NC(=O)[C@@H]1CCCN1C(=O)[C@@H](N)CCCNC(=N)N)C(C)C [Arg-Pro-Asp-Val-Isopropylamide] (H-RPDV-NHiPr) | display both T cell suppressor and helper activities like thymopentin | active | display both T cell suppressor and helper activities like thymopentin | – |
| CNC(=O)[C@@H](NC(=O)[C@H](CC(=O)O)NC(=O)[C@@H]1CCCN1C(=O)[C@H](CCCNC(=N)N)NC=O)C(C)C [Formyl-Arg-Pro-Asp-Val-Methylamide, N-formyl-Arg-Pro-Asp-Val-Methylamide] (For-RPDV-NHMe) | display both T cell suppressor and helper activities like thymopentin | – | display both T cell suppressor and helper activities like thymopentin | – |
| Arg-Lys-Asp-Val-Dimethylamide [reference compound] | do not display T cell suppressor stimulatory activity of thymopentin | inactive | – | – |
| Arg-Lys-Asp-Val-Piperidineamide | – | active | – | – |
| Arg-Lys-Glu-Val-Tyr [SP-5] | – | – | – | stimulates helper T cell activity in vivo in mice |
| Arg-Pro-Asp-Val-Morpholinoamide [reference compound] | do not display T cell suppressor stimulatory activity of thymopentin | – | – | – |
